Experiments:
[1] = test system: Adult Bovine Aortic Endothelial (ABAE) cell line; assay: Antiproliferative activity in Adult Bovine Aortic Endothelial (ABAE) cell line, PROTOCOL 3 (4 days, cell count); assay type: cell-based
Method: The antiproliferative activity of the compounds of Formula I in an Adult Bovine Aortic Endothelial (ABAE) cell line and in Human Tumor cells lines is evaluated in three similar assays that measure growth inhibition. The assays are identified as follows:
PROTOCOLS 1, 2, and 3 are described in greater detail hereinbelow. In general, according to PROTOCOLS 1 and 2, the target ABAE and/or Human Tumor cells are exposed to the compounds of Formula I for 48 hours. PROTOCOL 3 exposes ABAE cells to the compounds for 4 days. A detailed description of the Protocols is as follows:
Antiproliferative Activity in Adult Bovine Aortic Endothelial (ABAE) Cell Line
ABAE cells are grown in DMEM media (Mediatech, Washington, D.C.) supplemented with 10% calf serum (Hyclone). ABAE cells are plated in 24-well dishes at 8,000 cells/well, followed by the addition of increasing concentrations of 7-halogen-9-[hydrogen or [(substituted glycyl)amido]]-6-demethyl-6-deoxytetracycline. After four days, the cells are detached and counted. […] The growth inhibition (I) as % of control is calculated as follows: [formula] wherein: Nc is the number of cells in untreated wells;
Nt is the number of cells in treated wells;
No is the number of plated cells.
IC50 of growth inhibition is determined from the sets of I values plotted by Kaleidograph software (Abelbeck Software).
Table 1 presents the results depicting the antiproliferative activity of the compounds of Formula I against an ABAE cell line, as evaluated by PROTOCOL 2 and PROTOCOL 3. The results are presented in terms of IC50 and are as follows.

[2] = test system: tumor; conditions: Teicher et al; used in conjunction with cancer chemotherapy or radiation therapy; cited from earlier work

For `CN(C)c1ccc(O)c2c1C[C@H]1C[C@H]3[C@H](N(C)C)C(O)=C(C(N)=O)C(=O)[C@@]3(O)C(O)=C1C2=O` [Minocycline, reference compound], the IC50 ([1]; Bos taurus, 96 h, ABAE cells, PROTOCOL 3, 4 days, read-out: IC50 PROTOCOL 3) is given as at least 50 µg/mL, the “activity upon incubation with cells” value ([1]; FIG. 1, 4 day assay (Protocol 3), in words) is given as “losing its activity upon incubation with cells” and the “number of metastases with chemotherapy or radiation therapy” value [2] is given as “the number of metastases is reduced”. For the same molecule, the “tumor growth with chemotherapy or radiation therapy” value [2] was “tumor growth is decreased”.
